In PMC6737244, “Cathelicidin Peptides Restrict Bacterial Growth via Membrane Perturbation and Induction of Reactive Oxygen Species” (mBio, 2019):
Ends that are not written are not given here.

What was measured:
[1] = system: P. aeruginosa biofilms; test: Established biofilm in flow cell, LIVE/DEAD staining; conditions: 100 nM
[2] = system: V. cholerae; test: CellROX ROS production, single-cell imaging; type: cell-based, Vibrio cholerae; conditions: 100 nM, 2.5 μM CellROX
From the text: The assortment of E. coli genes that were differentially expressed after peptide treatment led us to suspect that B22a induced oxidative stress. Oxidative stress is often transient and challenging to detect due to a suite of enzymes in bacterial cells that can rapidly reduce oxidative species. We monitored the real-time accumulation of ROS in single cells of V. cholerae in the presence of CellROX, a cell-permeable redox dye that reacts with O2^– and ^·OH ([30]). CellROX is nonfluorescent in the reduced state, but upon oxidation, it binds double-stranded DNA and fluoresces strongly. Images were captured at 15-s intervals over 40 min, twice the doubling time of V. cholerae under these conditions. […] The number of fluorescent cells increased following treatment with 25, 50, or 100 nM B22 or B22a (Fig. S4), and a fluorescence burst due to the oxidation of CellROX was observed within 15 s of B22 treatment (Fig. 7A, bottom). The signal intensity peaked over the next 30 s and then dissipated after about 1 min. The loss in fluorescence intensity was followed by an abrupt shortening in cell length, a dramatic decrease in cell contrast, and bleb formation roughly 45 s later.

[3] = system: Vibrio cholerae C6075; type: cell-based; conditions: CAMHB, 16 to 18 h, at least three independent assays
Protocol: (§1) MICs were determined by using the broth microdilution method based on the general recommendations of the Clinical and Laboratory Standards Institute (CLSI). Bacteria were grown in CAMHB overnight. They were then diluted into fresh medium the following morning and grown to early log phase. The cultures were then diluted to approximately 5 × 10^5 CFU ml^−1, and 100 μl was added to sterile 96-well polypropylene microtiter plates (Corning, NY, USA) preloaded with twofold dilutions of antimicrobial peptides. […] All MIC assays were determined from at least three independent assays.

[4] = system: Vibrio cholerae AC53; type: cell-based; conditions: CAMHB, 16 to 18 h, at least three independent assays
Protocol: as §1

[5] = system: Escherichia coli J53 AzideR; type: cell-based; conditions: CAMHB, 16 to 18 h, at least three independent assays
Protocol: as §1

[6] = system: Pseudomonas aeruginosa PAO1 oprD; type: cell-based; conditions: CAMHB, 16 to 18 h, at least three independent assays
Protocol: as §1

[7] = system: Escherichia coli IU342; test: MIC, broth microdilution; type: cell-based; conditions: CAMHB, 16 to 18 h, at least three independent assays
Protocol: as §1

[8] = system: E. coli; test: Single-cell division time, time-lapse phase-contrast microscopy; type: cell-based, Escherichia coli; conditions: 30 nM, first three generations
Protocol: (§2) To confirm that sublethal levels of cathelicidins affected the growth of Gram-negative bacteria, the division of single cells of E. coli and E. cloacae was monitored. Cells were seeded into microfluidic chambers and grown under continuous flow, and time-lapse phase-contrast microscopy was used to record the cell division time in the presence or absence of B22a.
(§3) Imaging of individual cells was conducted using the CellAsic microfluidic perfusion system (ONIX) with integrated temperature controller and B04A bacterial microfluidic plates (EMD Millipore, Billerica, MA). The CellAsic ONIX FG software (v 5.0.2.0) was used to control flow rate and deliver fresh medium with or without antimicrobial peptide (AMP). The chambers were loaded by perfusion of 50 μl of a 10^6 cells/ml bacterial suspension at 2 lb/in^2 for 15 s to prime the cells followed by 4 lb/in^2 for 15 s to trap the cells. The chamber was then rinsed at 1 lb/in^2 for 30 s followed by 5 lb/in^2 for 5 min. To quickly switch solutions, medium was perfused at 10 lb/in^2 for 10 s, and then flow was reduced to 2 lb/in^2 for the remainder of the imaging.

[9] = system: V. cholerae biofilms; test: Established biofilm in flow cell, LIVE/DEAD staining
[10] = system: E. cloacae; test: Single-cell division time, time-lapse phase-contrast microscopy; type: cell-based, Enterobacter cloacae; conditions: 30 nM, first three generations
Protocol: as §2, §3

Row | Substance | Drop in biofilm biomass ([1]; 4-h period, continuous flow) | Cell death in biofilm (spike) ([1]; after 1 h) | Time to fluorescence burst due to oxidation of CellROX [2] | MIC [3] | MIC [4] | MIC [5] | MIC [6] | MIC [7] | Cell division time [8] | Overall biofilm biomass [9] | Cell death in biofilm ([9]; at 6 h) | Cell division time [10]
1 | FRKKLKKLFKKLSPVIPLLKLG [B22] | 50% | > 50 | ≤ 15 s |  |  |  |  |  |  |  |  | 
2 | FRKKLKKLFKKLSPVIPLLKLG-NH2 [B22a] |  |  |  | 4 µM | 4 µM | 2 µM | 2 µM | 2 µM | increased twofold | decreased the overall biomass by half | 50% | increased twofold
